Assay results from ChEMBL document CHEMBL1909046, “DrugMatrix in vitro pharmacology data”.

What was measured:
[1] = molecular target: 5-hydroxytryptamine receptor 6 (Homo sapiens, UniProt P50406); type: cell membranes, HeLa, Membrane; further: in other assays of this panel Not Active means under 50% inhibition at 10 µM
Adenosine receptor A2a = Adenosine receptor A2a (Homo sapiens, UniProt P29274); test: DRUGMATRIX: Adenosine A2A radioligand binding (ligand: […]); type: cell membranes, HEK293, Membrane; details: Not Active = under 50% inhibition at 10 µM
[2] = DRUGMATRIX: Calcium Channel Type L, Benzothiazepine radioligand binding (ligand: [3H] Diltiazem); type: cell membranes, Rattus norvegicus, Wistar, Brain, Membrane; details: Not Active = under 50% inhibition at 10 µM
[3] = DRUGMATRIX: Purinergic P2X radioligand binding (ligand: [3H] alpha, beta-Methylene-ATP); type: cell membranes, Oryctolagus cuniculus, New Zealand albino, Urinary bladder, Membrane; details: Not Active = under 50% inhibition at 10 µM
[4] = molecular target: T1, Alpha-1D adrenergic receptor (Homo sapiens, UniProt P25100); type: cell membranes, HEK293, Membrane; details: hek293; further: in other assays of this panel Not Active means under 50% inhibition at 10 µM
T1 sequence (P25100 whole entry): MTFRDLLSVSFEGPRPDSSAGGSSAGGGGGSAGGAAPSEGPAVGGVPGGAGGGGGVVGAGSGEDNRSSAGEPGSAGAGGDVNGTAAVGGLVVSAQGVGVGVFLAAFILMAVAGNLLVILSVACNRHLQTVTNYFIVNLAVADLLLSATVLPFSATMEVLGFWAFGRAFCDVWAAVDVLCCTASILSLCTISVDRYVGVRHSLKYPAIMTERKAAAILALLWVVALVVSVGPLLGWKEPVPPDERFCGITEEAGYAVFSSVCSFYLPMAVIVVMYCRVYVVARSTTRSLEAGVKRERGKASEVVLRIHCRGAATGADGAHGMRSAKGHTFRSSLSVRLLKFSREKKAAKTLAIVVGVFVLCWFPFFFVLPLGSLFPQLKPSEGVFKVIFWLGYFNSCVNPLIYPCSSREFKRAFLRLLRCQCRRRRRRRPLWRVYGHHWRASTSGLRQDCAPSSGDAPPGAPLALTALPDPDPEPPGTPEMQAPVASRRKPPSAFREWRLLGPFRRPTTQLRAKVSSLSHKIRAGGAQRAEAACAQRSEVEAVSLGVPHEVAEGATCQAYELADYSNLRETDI

Chain of Adenosine receptor A2a (P29274 whole entry): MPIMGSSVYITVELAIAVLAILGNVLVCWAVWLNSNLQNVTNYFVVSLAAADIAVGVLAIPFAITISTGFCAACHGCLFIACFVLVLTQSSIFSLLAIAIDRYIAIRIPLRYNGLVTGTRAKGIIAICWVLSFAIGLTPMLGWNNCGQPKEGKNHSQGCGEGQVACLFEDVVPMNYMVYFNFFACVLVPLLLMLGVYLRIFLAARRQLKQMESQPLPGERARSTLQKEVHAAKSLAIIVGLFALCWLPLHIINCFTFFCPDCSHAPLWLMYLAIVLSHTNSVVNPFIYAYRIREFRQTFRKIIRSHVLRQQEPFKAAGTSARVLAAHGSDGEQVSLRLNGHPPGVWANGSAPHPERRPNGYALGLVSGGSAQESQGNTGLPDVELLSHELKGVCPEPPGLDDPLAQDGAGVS
Chain of 5-hydroxytryptamine receptor 6 (P50406 whole entry): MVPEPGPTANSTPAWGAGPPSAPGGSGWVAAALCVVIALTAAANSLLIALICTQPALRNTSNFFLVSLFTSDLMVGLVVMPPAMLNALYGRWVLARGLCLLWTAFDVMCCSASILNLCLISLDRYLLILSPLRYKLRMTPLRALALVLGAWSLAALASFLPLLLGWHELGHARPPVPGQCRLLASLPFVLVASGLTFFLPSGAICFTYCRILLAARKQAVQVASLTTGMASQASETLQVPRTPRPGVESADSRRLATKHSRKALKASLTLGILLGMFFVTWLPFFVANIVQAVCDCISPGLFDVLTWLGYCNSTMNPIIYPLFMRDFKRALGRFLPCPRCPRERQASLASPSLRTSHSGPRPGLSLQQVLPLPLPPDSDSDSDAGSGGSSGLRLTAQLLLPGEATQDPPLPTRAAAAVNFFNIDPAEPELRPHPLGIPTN

| Molecule | IC50 ([1]; hela) | IC50 (Adenosine receptor A2a; hek293) | IC50 [2] | Ki [2] | IC50 [3] | Ki [3] | IC50 [4] | IC50 ([1]; hela, read-out: IC50) [nM] | Ki ([1]; hela, read-out: Ki) [nM] | Ki (Adenosine receptor A2a; hek293) | Ki [4] | IC50 (Adenosine receptor A2a; read-out: IC50) [nM] | Ki (Adenosine receptor A2a; read-out: Ki) [nM] | IC50 ([1]; read-out: IC50) [nM] | Ki ([1]; read-out: Ki) [nM] | Ki ([1]; hela) |
| --- | --- | --- | --- | --- | --- | --- | --- | --- | --- | --- | --- | --- | --- | --- | --- | --- |
| Cc1cn([C@H]2C[C@H](N=[N+]=[N-])[C@@H](CO)O2)c(=O)[nH]c1=O [ZIDOVUDINE] | Not Active | Not Active | Not Active | Not Active | Not Active | Not Active | Not Active | – | – | – | – | – | – | – | – | – |
| THIMEROSAL | – | Not Active | Not Active | Not Active | Not Active | Not Active | Not Active | 5940 | 2760 | Not Active | Not Active | – | – | – | – | – |
| NC[C@H]1O[C@H](O[C@H]2[C@H](O)[C@@H](O[C@H]3O[C@H](CO)[C@@H](O)[C@H](N)[C@H]3O)[C@H](N)C[C@@H]2N)[C@H](N)C[C@@H]1O [TOBRAMYCIN] | Not Active | Not Active | Not Active | Not Active | Not Active | Not Active | Not Active | – | – | – | – | – | – | – | – | – |
| O=P(O)(O)C(O)(Cc1cccnc1)P(=O)(O)O [RISEDRONIC ACID] | Not Active | Not Active | Not Active | Not Active | Not Active | Not Active | Not Active | – | – | – | – | – | – | – | – | – |
| Nc1ccc(S(=O)(=O)Nc2nccs2)cc1 [SULFATHIAZOLE] | Not Active | Not Active | Not Active | Not Active | Not Active | Not Active | Not Active | – | – | – | – | – | – | – | – | – |
| Nc1ccc(S(=O)(=O)Nc2ncccn2)cc1 [SULFADIAZINE] | Not Active | Not Active | Not Active | Not Active | Not Active | Not Active | Not Active | – | – | – | – | – | – | – | – | – |
| CN[C@@H]1[C@H](O)[C@H](NC)[C@H]2O[C@@]3(O)C(=O)C[C@@H](C)O[C@H]3O[C@@H]2[C@H]1O [SPECTINOMYCIN] | Not Active | Not Active | Not Active | Not Active | Not Active | Not Active | Not Active | – | – | – | – | – | – | – | – | – |
| COc1cc(N)nc2[nH]c(-c3ccc(F)cc3)c(-c3ccncc3)c12 | Not Active | – | Not Active | Not Active | Not Active | Not Active | Not Active | – | – | – | – | 1030 | 580 | – | – | – |
| CN(CCOc1ccc(CC2SC(=O)NC2=O)cc1)c1ccccn1 (centres undefined) [ROSIGLITAZONE] | Not Active | Not Active | Not Active | Not Active | Not Active | Not Active | Not Active | – | – | – | – | – | – | – | – | – |
| C=C(C)[C@H]1Cc2c(ccc3c2O[C@@H]2COc4cc(OC)c(OC)cc4[C@@H]2C3=O)O1 [ROTENONE] | – | Not Active | Not Active | Not Active | Not Active | Not Active | Not Active | – | – | – | – | – | – | 870 | 404 | – |
| O=C(O)C(Cl)(Cl)Cl [TRICHLOROACETIC ACID] | Not Active | Not Active | Not Active | Not Active | Not Active | Not Active | Not Active | – | – | – | – | – | – | – | – | – |
| CNS(=O)(=O)Cc1ccc2[nH]cc(CCN(C)C)c2c1 | Not Active | Not Active | Not Active | Not Active | Not Active | Not Active | Not Active | – | – | – | – | – | – | – | – | – |
| CCCc1nn(C)c2c(=O)[nH]c(-c3cc(S(=O)(=O)N4CCN(C)CC4)ccc3OCC)nc12 | Not Active | – | Not Active | Not Active | Not Active | Not Active | Not Active | – | – | – | – | 253 | 142 | – | – | – |
| Nc1nc2c(c(=O)[nH]1)N(C=O)C(CNc1ccc(C(=O)N[C@@H](CCC(=O)O)C(=O)O)cc1)CN2 (some centres undefined) [LEUCOVORIN] | Not Active | Not Active | Not Active | Not Active | Not Active | Not Active | Not Active | – | – | – | – | – | – | – | – | – |
| CCS(=O)(=O)CCn1c([N+](=O)[O-])cnc1C [TINIDAZOLE] | Not Active | Not Active | Not Active | Not Active | Not Active | Not Active | Not Active | – | – | – | – | – | – | – | – | – |
| C#CCN(C)[C@H](C)Cc1ccccc1 [SELEGILINE] | Not Active | Not Active | Not Active | Not Active | Not Active | Not Active | Not Active | – | – | – | – | – | – | – | – | – |
| COc1cc(C(=O)NS(=O)(=O)c2ccccc2C)ccc1Cc1cn(C)c2ccc(NC(=O)OC3CCCC3)cc12 [ZAFIRLUKAST] | Not Active | Not Active | Not Active | Not Active | Not Active | Not Active | Not Active | – | – | – | – | – | – | – | – | – |
| STANNOUS FLUORIDE | Not Active | Not Active | Not Active | Not Active | Not Active | Not Active | Not Active | – | – | Not Active | Not Active | – | – | – | – | Not Active |
| C[C@]12CC[C@H]3[C@@H](CCC4=CC(=O)CC[C@@]43C)[C@@H]1CC[C@@H]2O [TESTOSTERONE] | Not Active | Not Active | Not Active | Not Active | Not Active | Not Active | Not Active | – | – | – | – | – | – | – | – | – |
| COc1ccc(/C=C/C(=O)Nc2ccccc2C(=O)O)cc1OC | Not Active | Not Active | Not Active | Not Active | Not Active | Not Active | Not Active | – | – | – | – | – | – | – | – | – |
